Counter-ions that a name gives are not always drawn. Active and inactive are the calls of the source. The calls are words filed in the database; no cut-off is given here.
How the values were obtained:
KBv200 [1] = assay: Inhibition of Rho-123 uptake in human KBv200 cells at 10 uM incubated for 10 mins by flow cytometry; format: functional, cell-based
KBv200 [2] = assay: Inhibition of cell proliferation in human KBv200 cells assessed as inhibition of VNR at 10 uM incubated for 72 hrs in presence of VNR by SRB assay relative to control; format: functional
KBv200 [3] = assay: Reversal fold, ratio of VNR IC50 to VNR IC50 in presence of test compound for human KBv200 cells incubated for 72 hrs by SRB assay; format: functional
KBv200 [4] = assay: Cytotoxicity against human KBv200 cells at 10 uM incubated for 72 hrs by SRB assay relative to control; format: functional
KBv200 [5] = assay: Inhibition of calcein AM uptake in human KBv200 cells at 10 uM incubated for 10 mins by flow cytometry; format: functional, cell-based
KBv200 [6] = assay: Inhibition of ADR uptake in human KBv200 cells at 10 uM incubated for 10 mins by flow cytometry; format: functional, cell-based
KBv200 [7] = assay: Reversal effect on P-gp-mediated multidrug resistance in human KBv200 cells assessed as inhibition of cell proliferation incubated for 72 hrs by SRB assay; format: functional, cell-based; conditions: KBv200, 72 h
NCI/ADR-RES = assay: Reversal effect on P-gp-mediated multidrug resistance in human NCI/ADR-RES cells assessed as inhibition of cell proliferation incubated for 72 hrs by SRB assay; format: functional, cell-based

Compound | inhibition at 10 µM (KBv200 [2]) | Ratio IC50 (KBv200 [3]) | Activity (KBv200 [4]) | further results
COc1ccc(CCN(C)CCCC(C#N)(c2ccc(OC)c(OC)c2)C(C)C)cc1OC (centres undefined) [VERAPAMIL] | 97.5% | 59.5 | 5% | inhibition (KBv200 [1]): Active; inhibition (KBv200 [5]): inactive; inhibition (KBv200 [6]): inactive
CC(C)[C@@H]1NC(=O)CCCCCCCCCCC(=O)N[C@@H](Cc2ccccc2)COC1=O | 97.6% | 85 | 5% | –
CC[C@H](C)[C@@H]1NC(=O)[C@H](C(C)C)NC(=O)CCCCCCCC(=O)NCC(F)(F)COC1=O | 73.4% | 2.3 | 10.3% | –
CC(C)[C@@H]1NC(=O)CCCCCCCCC(=O)N[C@@H](Cc2ccccc2)COC1=O | 85.4% | 31.7 | 2.2% | –
CC[C@H](C)[C@@H]1NC(=O)[C@H](C(C)C)NC(=O)CCCCCCCC(=O)NCCCCOC1=O | 54% | – | – | –
CC(C)[C@@H]1NC(=O)CCCCCCCC(=O)N[C@@H](c2ccccc2)[C@@H](c2ccccc2)OC1=O | 14.1% | – | – | –
CC[C@H](C)[C@@H]1NC(=O)[C@H](C(C)C)NC(=O)CCCCCCCC(=O)N[C@@H]2CC[C@H](C2)OC1=O | 72.2% | 1.4 | 20.5% | –
CC(C)[C@@H]1NC(=O)CCCCCCCC(=O)N[C@@H](Cc2ccccc2)COC(=O)Cc2cccc(c2)NC1=O | 81.6% | 6.5 | 0% | –
CC(C)[C@@H]1NC(=O)CCCCCCCC(=O)Nc2ccccc2COC1=O | 29.7% | – | – | –
CC(C)[C@@H]1NC(=O)CCCCCCCC(=O)N[C@H](c2ccccc2)CCOC1=O | 30.1% | – | – | –
CC[C@H](C)[C@@H]1NC(=O)[C@H](C(C)C)NC(=O)CCCCCCCCC(=O)N[C@@H](Cc2ccccc2)COC1=O | 89.7% | 22.2 | 8.6% | –
CSCC[C@H]1COC(=O)[C@H](C(C)C)NC(=O)CCCCCCCC(=O)N1 | 34% | – | – | –
CC[C@H](C)[C@@H]1NC(=O)[C@H](C(C)C)NC(=O)CCCCCCC(=O)Nc2cccc(c2)COC1=O | 83.5% | 10.2 | 4.4% | –
CC(C)[C@@H]1NC(=O)CCCCCCCC(=O)NCCCOC1=O | 15% | – | – | –
CC(C)C1NC(=O)CCCCCCCC(=O)N[C@@]23C[C@H]4C[C@@H](C2)C[C@](C4)(C3)OC1=O (some centres undefined) | 42.9% | – | – | –
CC[C@H](C)[C@@H]1NC(=O)[C@H](C(C)C)NC(=O)CCCCCCCC(=O)N[C@@H](C)COC1=O | 49% | – | – | –
CC(C)[C@@H]1NC(=O)CCCCCCCC(=O)N[C@@H](Cc2ccccc2)COC(=O)[C@H](C)NC1=O | 55.5% | – | – | –
CCC[C@H]1COC(=O)[C@H](C(C)C)NC(=O)CCCCCCCC(=O)N1 | 46.3% | – | – | –
CC(C)[C@@H]1NC(=O)CCCCCCCC(=O)N[C@@H](C(C)(C)C)COC1=O | 53.6% | – | – | –
CC(C)[C@@H]1NC(=O)CCCCCCCCCCCC(=O)N[C@H](Cc2ccccc2)COC1=O | 75.4% | 51.3 | 17% | –
CC(C)[C@@H]1NC(=O)CCCCCCCC(=O)N[C@@H](Cc2ccccc2)COC(=O)CNC1=O | 11% | – | – | –
CC(C)[C@@H]1NC(=O)CCCCCCCC(=O)Nc2cccc(c2)OC1=O | 12.8% | – | – | –

Compound | inhibition at 10 µM (KBv200 [2]) | Ratio IC50 (KBv200 [3]) | Activity (KBv200 [4]) | further results
CC(C)[C@@H]1NC(=O)CCCCCCCC(=O)N[C@H]2[C@@H]3C[C@@H]4C[C@H]2C[C@@](C4)(C3)OC1=O | 14.1% | – | – | –
CC[C@H](C)[C@@H]1NC(=O)[C@H](C(C)C)NC(=O)CCCCCCCC(=O)Nc2ccccc2COC1=O | 90.9% | 7.3 | 19.8% | –
CC(C)[C@@H]1NC(=O)CCCCCCCC(=O)N[C@@H](Cc2ccccc2)COC1=O | 80.6% | 26.1 | 0% | –
CC[C@H](C)[C@@H]1NC(=O)[C@H](C(C)C)NC(=O)CCCCCCCC(=O)Nc2cc(F)cc(c2)COC1=O | 90.7% | 19.3 | 4.6% | –
CC[C@H](C)[C@@H]1NC(=O)[C@H](C(C)C)NC(=O)CCCCCCCC(=O)N[C@@H](Cc2ccccc2)COC1=O | 91.3% | 20.8 | 21.8% | –
CC[C@H](C)[C@@H]1NC(=O)[C@H](C(C)C)NC(=O)CCCCCCCC(=O)N[C@@H](C(C)C)COC1=O | 63.6% | 1.9 | 18.6% | –
CC(C)[C@@H]1NC(=O)CCCCCCC(=O)N[C@@H](Cc2ccccc2)COC1=O | 9.3% | – | – | –
CC(C)[C@@H]1NC(=O)CCCCCCCC(=O)Nc2ccccc2OC1=O | 14.5% | – | – | –
CC(C)[C@@H]1NC(=O)CCCCCCCC(=O)N[C@@H](Cc2ccccc2)COC(=O)Cc2ccc(cc2)NC1=O | 35.9% | – | – | –
COc1cccc2c1C(=O)c1c(O)c3c(c(O)c1C2=O)C[C@@](O)(C(=O)CO)C[C@@H]3O[C@H]1C[C@H](N)[C@H](O)[C@H](C)O1 [DOXORUBICIN HYDROCHLORIDE] | – | – | – | IC50 (KBv200 [7]): 373 nM; IC50 (NCI/ADR-RES): 26000 nM
CC(C)C[C@H]1COC(=O)[C@H](C(C)C)NC(=O)CCCCCCCC(=O)N1 | 48.9% | – | – | –
CC(C)[C@@H]1NC(=O)CCCCCCCC(=O)NCCCCCOC1=O | 26.6% | – | – | –
CC(C)[C@@H]1NC(=O)CCCCCCCC(=O)NCCOC1=O | 9.5% | – | – | –
CC(C)[C@@H]1NC(=O)CCCCCCCC(=O)N[C@@H](Cc2ccccc2)COC(=O)CCCNC1=O | 26.8% | – | – | –
CC(C)[C@@H]1NC(=O)CCCCCC(=O)N[C@@H](Cc2ccccc2)COC1=O | 42.6% | – | – | –
CC(C)[C@@H]1NC(=O)CCCCCCCC(=O)NCCCCOC1=O | 15.7% | – | – | –
COc1cc2c(cc1OC)CN(CCc1ccc(NC(=O)c3cc(OC)c(OC)cc3NC(=O)c3cnc4ccccc4c3)cc1)CC2 | – | – | – | inhibition (KBv200 [1]): Active; inhibition (KBv200 [5]): Active; inhibition (KBv200 [6]): Active
CC(C)[C@@H]1NC(=O)CCCCCCCC(=O)N[C@@H](Cc2ccccc2)COC(=O)[C@H](Cc2ccccc2)NC1=O | 88.9% | 2.7 | 0% | –
CC(C)[C@H]1NC(=O)CCCCCCCCCCCC(=O)N[C@H](Cc2ccccc2)COC1=O | 91.5% | 114.5 | 15.8% | –
CC[C@H](C)[C@@H]1NC(=O)[C@H](C(C)C)NC(=O)CCCCCCC(=O)N[C@@H](Cc2ccccc2)COC1=O | 28.7% | – | – | –
CC[C@H](C)[C@@H]1NC(=O)[C@H](C(C)C)NC(=O)CCCCCC(=O)N[C@@H](Cc2ccccc2)COC1=O | 25.7% | – | – | –
CC[C@H](C)[C@@H]1NC(=O)[C@H](C(C)C)NC(=O)CCCCCCCC(=O)NCc2cccc(c2)OC1=O | 6.4% | – | – | –

Compound | inhibition at 10 µM (KBv200 [2]) | Ratio IC50 (KBv200 [3]) | Activity (KBv200 [4]) | further results
CC(C)[C@@H]1NC(=O)CCCCCCCC(=O)N[C@@H](C)COC1=O | 20.7% | – | – | –
CC(C)[C@H]1NC(=O)CCCCCCCCCCCC(=O)N[C@@H](Cc2ccccc2)COC1=O | 68.3% | 57.2 | 16.7% | –
CC(C)[C@@H]1NC(=O)CCOCCOCCOCCC(=O)N[C@@H](Cc2ccccc2)COC1=O | 0.3% | – | – | –
CC(C)[C@@H]1NC(=O)CCCCCCCCCC(=O)N[C@@H](Cc2ccccc2)COC1=O | 93.4% | 55.1 | 1.8% | –
CC(C)[C@@H]1NC(=O)CCCCCCCCCCCCC(=O)N[C@@H](Cc2ccccc2)COC1=O | 97.3% | 99.2 | 4.4% | –
CC[C@H](C)[C@@H]1NC(=O)[C@H](C(C)C)NC(=O)CCCCCCCC(=O)NCCOC1=O | 51.1% | – | – | –
CC(C)[C@@H]1NC(=O)CCCCCCCC(=O)N[C@@H](c2ccccc2)COC1=O | 50.2% | – | – | –
CC[C@H](C)[C@@H]1NC(=O)[C@H](C(C)C)NC(=O)CCCCCCCC(=O)Nc2cccc(c2)COC1=O | 92.3% | 26.8 | 31% | –
CC[C@H](C)[C@H]1COC(=O)[C@H](C(C)C)NC(=O)CCCCCCCC(=O)N1 | 51.2% | – | – | –
CC[C@H](C)[C@@H]1NC(=O)[C@H](C(C)C)NC(=O)CCCCCC(=O)Nc2cccc(c2)COC1=O | 14.5% | – | – | –
CC(C)[C@@H]1NC(=O)CCCCCCCC(=O)N[C@@H](Cc2ccccc2)COC(=O)[C@H](C(C)C)NC1=O | 91.1% | 7.9 | 15.8% | –
CC(=O)O[C@H]1C(=O)[C@@]2(C)[C@H]([C@H](OC(=O)c3ccccc3)[C@]3(O)C[C@H](OC(=O)[C@H](O)[C@@H](NC(=O)c4ccccc4)c4ccccc4)C(C)=C1C3(C)C)[C@]1(OC(C)=O)CO[C@@H]1C[C@@H]2O [PACLITAXEL] | – | – | – | IC50 (KBv200 [7]): 238 nM
CC(C)[C@@H]1NC(=O)CCCCCCCC(=O)N[C@@H](Cc2ccccc2)COC(=O)CCNC1=O | 12% | – | – | –
CC(C)[C@@H]1NC(=O)CCCCCCCC(=O)NCC(C)(C)COC1=O | 38.8% | – | – | –
CC[C@H](C)[C@@H]1NC(=O)[C@H](C(C)C)NC(=O)CCCCCCCCC(=O)Nc2cccc(c2)COC1=O | 77.6% | 7.3 | 10.9% | –
CC[C@H](C)[C@@H]1NC(=O)[C@H](C(C)C)NC(=O)CCCCCCCC(=O)NCCCOC1=O | 44.8% | – | – | –
CC(C)[C@@H]1NC(=O)CCCCCCCC(=O)NC(C)(C)CCOC1=O | 23.1% | – | – | –
CC(C)[C@@H]1NC(=O)CCCCCCCC(=O)Nc2cccc(c2)COC1=O | 13.1% | – | – | –
CC(C)[C@@H]1NC(=O)CCCCCCCC(=O)N[C@@H](C(C)C)COC1=O | 34.4% | – | – | –
CC(C)[C@@H]1NC(=O)CCCCCCCC(=O)NCCCCCCOC1=O | 21.1% | – | – | –
